The values that follow come from ChEMBL document CHEMBL3044542 (J Agric Food Chem, 2011).

Format in all cases: functional
For experiment [1], the system named is Nephotettix cincticeps. Briefly: Insecticidal activity against Nephotettix cincticeps (green rice leafhopper) assessed as lethality at 0.1 to 1 ppm.
Experiment [2] deals with Laodelphax striatellus. Briefly: Insecticidal activity against Laodelphax striatella (small brown planthopper) assessed as lethality at 0.1 to 1 ppm.
Experiment [3] deals with Nephotettix cincticeps. Briefly: Insecticidal activity against Nephotettix cincticeps (green rice leafhopper) assessed as lethality at >1000 ppm.
Experiment [4] has as its system Laodelphax striatellus. Briefly: Insecticidal activity against Laodelphax striatella (small brown planthopper) assessed as lethality at >1000 ppm.
Experiment [5] has as its system Nephotettix cincticeps. Briefly: Insecticidal activity against Nephotettix cincticeps (green rice leafhopper) assessed as lethality at 100 to 1000 ppm.
Experiment [6] concerns Laodelphax striatellus. Briefly: Insecticidal activity against Laodelphax striatella (small brown planthopper) assessed as lethality at 100 to 1000 ppm.
Experiment [7] has as its system Nephotettix cincticeps. Briefly: Insecticidal activity against Nephotettix cincticeps (green rice leafhopper) assessed as lethality at 10 to 100 ppm.
The test system of experiment [8] is Laodelphax striatellus. Briefly: Insecticidal activity against Laodelphax striatella (small brown planthopper) assessed as lethality at 10 to 100 ppm.
Experiment [9] concerns Nephotettix cincticeps. Briefly: Insecticidal activity against Nephotettix cincticeps (green rice leafhopper) assessed as lethality at 1 to 10 ppm.
In experiment [10] the test system is Laodelphax striatellus. Briefly: Insecticidal activity against Laodelphax striatella (small brown planthopper) assessed as lethality at 1 to 10 ppm.

Each structure is given as a SMILES string.

In the case of `CC(=O)N(C)/C(=N\[N+](=O)[O-])N(CC1CCOC1)C(C)=O` (stereo not given), the Activity with Nephotettix cincticeps [1] and in the experiment on Laodelphax striatellus [2] was 70% in each case.

On to `CN/C(=N\[N+](=O)[O-])NCC1CCOC1C` (mixture of isomers), for which the Activity in the experiment with Nephotettix cincticeps [3] and in the experiment on Laodelphax striatellus [4] was 70% each time.

For the compound `O=[N+]([O-])/C=C1\NCCN1CCCO`, the Activity in the experiment with Nephotettix cincticeps [5] and with Laodelphax striatellus [6] was 70% throughout.

Take `CN1COCN(CC2CCOC2)/C1=N/[N+](=O)[O-]` (stereo not given): the Activity with Nephotettix cincticeps [5] and in the experiment with Laodelphax striatellus [6] was 70% each time.

`COCCCN1CCN/C1=C\[N+](=O)[O-]`: the Activity in the experiment with Nephotettix cincticeps [7] and in the experiment on Laodelphax striatellus [6] was 70% in each case.

Take `CCN/C(=N\[N+](=O)[O-])NCC1CCOC1` (stereo not given): the Activity with Nephotettix cincticeps [7] and with Laodelphax striatellus [6] was 70% throughout.

Consider `O=[N+]([O-])/N=C1\NCCN1Cc1ccoc1`, for which the Activity in the experiment on Nephotettix cincticeps [7] and in the experiment on Laodelphax striatellus [8] was 70% in each case.

As for `CC(=O)OCCN1CCN/C1=C\[N+](=O)[O-]`, the Activity with Nephotettix cincticeps [3] and with Laodelphax striatellus [6] was 70% each time.

Take `O=[N+]([O-])/N=C1\NCCN1Cc1ccc(Cl)nc1` [IMIDACLOPRID]: the Activity in the experiment with Nephotettix cincticeps [1] and in the experiment on Laodelphax striatellus [2] was 70% in each case.

For `O=[N+]([O-])/N=C1\NCCN1CCC1CCCO1` (stereo not given), the Activity in the experiment with Nephotettix cincticeps [5] and in the experiment with Laodelphax striatellus [6] was 70% throughout.

Regarding `O=C(OCCCN1CCN/C1=C\[N+](=O)[O-])c1ccccc1`, the Activity in the experiment with Nephotettix cincticeps [5] and in the experiment with Laodelphax striatellus [6] was 70% each time.

Take `CC(=O)OCCCN1CCN/C1=C\[N+](=O)[O-]`: the Activity in the experiment on Nephotettix cincticeps [5] and in the experiment on Laodelphax striatellus [6] was 70% throughout.

Regarding `CN/C(=N/CC1CCOC1)N[N+](=O)[O-]` (stereo not given) [DINOTEFURAN], the Activity with Nephotettix cincticeps [1] and in the experiment on Laodelphax striatellus [2] was 70% throughout.

Consider `O=[N+]([O-])/N=C1\NCCN1CCC1CCCCO1` (stereo not given), for which the Activity in the experiment on Nephotettix cincticeps [5] and with Laodelphax striatellus [6] was 70% throughout.

Turning to `CN/C(=N\[N+](=O)[O-])N(C)CC1CCOC1` (stereo not given), the Activity in the experiment on Nephotettix cincticeps [9] and in the experiment with Laodelphax striatellus [10] was 70% each time.

`CN(C)/C(=N\[N+](=O)[O-])N(C)CC1CCOC1` (stereo not given): the Activity in the experiment with Nephotettix cincticeps [7] and in the experiment on Laodelphax striatellus [8] was 70% in each case.

As for `O=C(OCCN1CCN/C1=C\[N+](=O)[O-])c1ccccc1`, the Activity with Nephotettix cincticeps [3] and in the experiment with Laodelphax striatellus [6] was 70% each time.

For `CN/C(=N\[N+](=O)[O-])NCC1(C)CCOC1` (stereo not given), the Activity in the experiment on Nephotettix cincticeps [3] and with Laodelphax striatellus [4] was 70% in each case.

`N/C(=N\[N+](=O)[O-])NCC1CCOC1` (stereo not given): the Activity in the experiment on Nephotettix cincticeps [5] worked out at 70%.

For `CCN(CC1CCOC1)/C(=C/[N+](=O)[O-])NC` (stereo not given), the Activity in the experiment with Nephotettix cincticeps [9] and with Laodelphax striatellus [8] was 70% in each case.

As to `CC/C(=C\[N+](=O)[O-])N(C)CC1CCOC1` (stereo not given), in the experiment on Nephotettix cincticeps [3], the Activity is 70%.

As for `CN/C(=C\[N+](=O)[O-])CCC1CCOC1` (stereo not given), the Activity in the experiment with Nephotettix cincticeps [3] worked out at 70%.

With `C/C(=N\C#N)N(C)CC1CCOC1` (stereo not given), the Activity in the experiment on Nephotettix cincticeps [5] and in the experiment on Laodelphax striatellus [6] was 70% in each case.

In the case of `CCC1COCC1CN/C(=N/[N+](=O)[O-])NC` (mixture of isomers), the Activity with Nephotettix cincticeps [3] and in the experiment with Laodelphax striatellus [4] was 70% in each case.

Consider `CN/C(=N\[N+](=O)[O-])NCC1CC2CCC1O2` (mixture of isomers), for which the Activity in the experiment with Nephotettix cincticeps [3] and in the experiment with Laodelphax striatellus [4] was 70% in each case.

As for `CN/C(=C\[N+](=O)[O-])NCC1CCOC1` (stereo not given), the Activity in the experiment on Nephotettix cincticeps [1] and with Laodelphax striatellus [2] was 70% each time.

With `CN/C(=N\[N+](=O)[O-])NCC1CCCOC1` (stereo not given), the Activity in the experiment on Nephotettix cincticeps [7] and with Laodelphax striatellus [6] was 70% each time.

Turning to `O=[N+]([O-])/N=C1\NCCN1CC1CCOC1` (stereo not given), the Activity in the experiment on Nephotettix cincticeps [9] and with Laodelphax striatellus [8] was 70% each time.

For the compound `COCCN1CCN/C1=C\[N+](=O)[O-]`, the Activity in the experiment on Nephotettix cincticeps [7] and with Laodelphax striatellus [6] was 70% throughout.

As for `CN(C(=O)c1ccccc1)/C(=N\[N+](=O)[O-])N(CC1CCOC1)C(=O)c1ccccc1` (stereo not given), the Activity in the experiment on Nephotettix cincticeps [1] and with Laodelphax striatellus [10] was 70% in each case.

On to `O=[N+]([O-])/C=C1\NCCN1CCO`, for which the Activity with Nephotettix cincticeps [3] and with Laodelphax striatellus [6] was 70% each time.

For `CN/C(=N\[N+](=O)[O-])NCC1COC(C)C1` (mixture of isomers), the Activity in the experiment with Nephotettix cincticeps [9] and with Laodelphax striatellus [8] was 70% each time.

`CN/C(=N\[N+](=O)[O-])NCC1COCC1C` (mixture of isomers): the Activity in the experiment with Nephotettix cincticeps [9] and in the experiment on Laodelphax striatellus [8] was 70% in each case.

As for `N#C/N=C1\SCCCN1CC1CCOC1` (stereo not given), the Activity in the experiment on Nephotettix cincticeps [7] and in the experiment on Laodelphax striatellus [8] was 70% in each case.
